One experiment concerns T1, MaMATE14.
T1 construct: full-length cDNA in pYES2, expressed in Saccharomyces cerevisiae BY4741; microsomal vesicles; 510 residues; 12 predicted transmembrane segments
The experiment is described as follows: uptake into yeast microsomal vesicles, HPLC, Lineweaver-Burk. The format is biochemical, Muscari aucheri. Particulars: transport; 5 mM MgATP, 25 mM Tris-MES pH 8.0, 50 mM KCl, 25 °C, 20 min; minus-ATP subtracted.

A further experiment concerns T2, MaMATE11.
T2 construct: full-length cDNA in pYES2, expressed in Saccharomyces cerevisiae BY4741; microsomal vesicles; 441 residues; 10 predicted transmembrane segments
The experiment is described as above. The format is biochemical, Muscari aucheri. The note with it: transport; 5 mM MgATP, 25 mM Tris-MES pH 8.0, 50 mM KCl, 25 °C, 20 min; minus-ATP subtracted.

Take `Oc1ccc([C@H]2Oc3cc(O)cc(O)c3C[C@H]2O)cc1` [(−)-epiafzelechin]: the results for the Km in the experiment with MaMATE14 and in the experiment on MaMATE11 were 43.8 µM and 57.4 µM, respectively.
Taken in the same sequence, the figures for `OC[C@H]1O[C@@H](Oc2cc3c(O[C@@H]4O[C@H](CO)[C@@H](O)[C@H](O)[C@H]4O)cc(O)cc3[o+]c2-c2ccc(O)c(O)c2)[C@H](O)[C@@H](O)[C@@H]1O` [cyanidin-3,5-di-O-glucoside] were 45.3 µM and 27 µM.
Taken in the same sequence, the figures for `OC[C@H]1O[C@@H](Oc2cc3c(O)cc(O)cc3[o+]c2-c2ccc(O)c(O)c2)[C@H](O)[C@@H](O)[C@@H]1O` [cyanidin-3-O-glucoside] were 61.4 µM and 57.5 µM.
Taken in the same sequence, the figures for `O=c1c(O)c(-c2ccc(O)cc2)oc2cc(O[C@@H]3O[C@H](CO)[C@@H](O)[C@H](O)[C@H]3O)cc(O)c12` [kaempferol 7-O-glucoside] were 57.4 µM and 60.2 µM.
